Patent publication US6939716B2, “Method for detecting conditions indicative of sepsis” (Washington University, priority 2001, dated 2005)
“Also recorded” adds a separate entry of the source. Each block holds one molecule with its values, some of them ahead of it.

What was measured:
Klebsiella pneumoniae = experiment: Bacterial killing by myeloperoxidase; format: cell-based
Description: Bacterial killing. The bactericidal activity of myeloperoxidase was quantified by conventional procedures as described previously (ref. 27). Briefly, Klebsiella pneumoniae were cultured in Luria-Bertani broth to mid-log growth phase, washed with PBS, and used at 10^9 bacteria/mL. Bacteria were incubated with 5 nM enzyme, 5 nM H2O2, and 100 mM NaCl in PBS (pH 5.5) for 15 min at 37° C. Serial dilutions were immediately spread on agar plates and the colony forming units determined after overnight incubation at 37° C.

[1] = Generation of N-acetyl-L-3-bromotyrosine by the HOCl-Cl^−-Br^− system (reverse-phase HPLC)
Description: Reaction conditions. Reactions were carried out for 60 min at 37° C. in buffer A (100 mM NaCl, 50 mM sodium phosphate, 100 μM diethylenetriaminepentaacetic acid (DTPA)) supplemented with 1 mM N-acetyl-L-tyrosine and either 50 μM hypohalous acid or 3 nM peroxidase and 50 μM H2O2. Buffer A was passed over a Chelex resin column prior to use to remove redox active transition metal ions. Reactions were initiated by the addition of oxidant and terminated with 0.1 mM methionine. Reverse-phase HPLC analyses of halogenated amino acids. Analyses were performed using a flow rate of 1 mL/min and an Ultrasphere ODS reverse-phase column (4.6 mm×25 cm; 5 μm; Beckman Instruments; Berkeley, Calif.) coupled to a Waters 484 Tunable Absorbance Detector with monitoring at 275 nm. Solvent A was 0.1% trifluoroacetic acid (TFA, pH 2.5), and solvent B was 0.1% TFA in methanol (pH 2.5). The gradient profile was: isocratic elution at 66:34 (v/v) A:B over 2.1 min; linear increase of B from 34% to 40% over 30 min; isocratic elution at 60:40 A:B for 3 min; increase of B from 40% to 100% over 2 min; and isocratic elution at 100% B for 3 min. Products were quantified using integrated peak areas by comparison to standard curves of authentic N-Ac-chlorotyrosine and N-Ac-bromotyrosine.

eosinophil peroxidase = biological target: T1, eosinophil peroxidase (Sus scrofa, UniProt P80550); experiment: Generation of N-acetyl-L-3-bromotyrosine by the eosinophil peroxidase-H2O2-Cl^−-Br^− system (reverse-phase HPLC); format: biochemical, Porcine
T1 construct: purchased ExOxEmis (Little Rock, Ark.)
T1 sequence (P80550 143-704): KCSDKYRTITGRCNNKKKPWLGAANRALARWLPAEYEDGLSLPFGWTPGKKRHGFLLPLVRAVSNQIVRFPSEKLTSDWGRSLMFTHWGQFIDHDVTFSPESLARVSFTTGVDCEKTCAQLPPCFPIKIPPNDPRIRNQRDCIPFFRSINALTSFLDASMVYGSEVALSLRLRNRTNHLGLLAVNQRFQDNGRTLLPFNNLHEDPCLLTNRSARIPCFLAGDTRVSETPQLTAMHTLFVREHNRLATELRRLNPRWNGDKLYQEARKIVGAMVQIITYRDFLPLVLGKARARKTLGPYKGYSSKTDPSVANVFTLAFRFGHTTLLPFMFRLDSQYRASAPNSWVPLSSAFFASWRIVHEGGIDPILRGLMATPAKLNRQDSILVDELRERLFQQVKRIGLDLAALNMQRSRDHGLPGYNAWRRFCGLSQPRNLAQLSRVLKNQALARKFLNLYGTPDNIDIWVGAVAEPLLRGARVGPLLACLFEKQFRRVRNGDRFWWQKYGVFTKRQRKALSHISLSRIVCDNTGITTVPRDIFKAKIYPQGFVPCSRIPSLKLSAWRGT
Description: General procedures. Myeloperoxidase was purified from HL60 cells (ref. 19). Enzyme was apparently pure as assessed by its absorption spectrum (A430/A280 ratio>0.8), SDS-PAGE, and peroxidase activity gel electrophoresis (ref. 20). Porcine eosinophil peroxidase (A415/A280>0.9) was from ExOxEmis (Little Rock, Ark.). Chloride-free NaOCl and HOBr were prepared by conventional procedures as described previously (refs. 21,22). Peritoneal white blood cells were elicited with intraperitoneal (i.p.) injection of 4% thioglycollate and harvested 24 h after injection (ref. 23). SDS-PAGE was performed using 10% Bis-Tris NuPAGE gels (Invitrogen; Carlsbad, Calif.). The separated proteins were transferred onto a nitrocellulose membrane, which was blocked overnight at 4° C. with 5% milk and 0.05% Tween-20 in phosphate-buffered saline (PBS; 10 mM phosphate, 138 mM NaCl, 2.7 mM KCl, pH 7.4). […]
Reverse-phase HPLC analyses of halogenated amino acids. Analyses were performed using a flow rate of 1 mL/min and an Ultrasphere ODS reverse-phase column (4.6 mm×25 cm; 5 μm; Beckman Instruments; Berkeley, Calif.) coupled to a Waters 484 Tunable Absorbance Detector with monitoring at 275 nm. […] Products were quantified using integrated peak areas by comparison to standard curves of authentic N-Ac-chlorotyrosine and N-Ac-bromotyrosine.

myeloperoxidase = biological target: T2, myeloperoxidase (Homo sapiens, UniProt P05164); experiment: Generation of N-acetyl-L-3-bromotyrosine by the myeloperoxidase-H2O2-Cl^−-Br^− system (reverse-phase HPLC); format: biochemical; details: for effect on bromination of N-acetyl-L-tyrosine by myeloperoxidase: acidic (pH 5.9) and neutral conditions; for effect on bromination by the myeloperoxidase-H2O2-Cl^−-Br^− system: mildly acidic conditions (pH 5.9)
T2 construct: endogenous in cells; host or cells: HL60 cells (endogenous enzyme, purified in house)
T2 sequence (P05164 49-745): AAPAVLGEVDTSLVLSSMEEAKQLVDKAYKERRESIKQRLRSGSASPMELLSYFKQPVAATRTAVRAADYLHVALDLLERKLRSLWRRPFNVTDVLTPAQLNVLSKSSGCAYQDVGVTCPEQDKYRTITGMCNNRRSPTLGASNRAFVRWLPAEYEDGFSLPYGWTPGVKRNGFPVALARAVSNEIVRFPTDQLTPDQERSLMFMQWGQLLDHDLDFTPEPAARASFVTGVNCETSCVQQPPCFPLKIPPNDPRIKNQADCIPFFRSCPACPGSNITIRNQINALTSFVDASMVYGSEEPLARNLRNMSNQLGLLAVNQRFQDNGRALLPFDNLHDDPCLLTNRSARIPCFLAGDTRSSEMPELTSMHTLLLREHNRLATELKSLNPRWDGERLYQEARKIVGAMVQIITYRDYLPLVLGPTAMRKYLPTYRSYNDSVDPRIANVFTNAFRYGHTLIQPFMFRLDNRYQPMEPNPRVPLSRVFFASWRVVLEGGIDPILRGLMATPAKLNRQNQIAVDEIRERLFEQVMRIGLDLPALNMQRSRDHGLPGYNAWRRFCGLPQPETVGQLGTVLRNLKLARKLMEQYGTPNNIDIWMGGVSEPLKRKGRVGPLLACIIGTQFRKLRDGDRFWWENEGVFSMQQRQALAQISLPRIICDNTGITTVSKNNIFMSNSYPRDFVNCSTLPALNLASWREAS
Description: General procedures. Myeloperoxidase was purified from HL60 cells (ref. 19). Enzyme was apparently pure as assessed by its absorption spectrum (A430/A280 ratio>0.8), SDS-PAGE, and peroxidase activity gel electrophoresis (ref. 20). Porcine eosinophil peroxidase (A415/A280>0.9) was from ExOxEmis (Little Rock, Ark.). Chloride-free NaOCl and HOBr were prepared by conventional procedures as described previously (refs. 21,22). Peritoneal white blood cells were elicited with intraperitoneal (i.p.) injection of 4% thioglycollate and harvested 24 h after injection (ref. 23). SDS-PAGE was performed using 10% Bis-Tris NuPAGE gels (Invitrogen; Carlsbad, Calif.). The separated proteins were transferred onto a nitrocellulose membrane, which was blocked overnight at 4° C. with 5% milk and 0.05% Tween-20 in phosphate-buffered saline (PBS; 10 mM phosphate, 138 mM NaCl, 2.7 mM KCl, pH 7.4). The blot was then incubated (1 h) with rabbit anti-mouse myeloperoxidase antibody (1:1,000) followed by goat anti-rabbit immunoglobulin antibody (1:10,000; Santa Cruz Biotechnology; Santa Cruz, Calif.) conjugated with horseradish peroxidase. West Pico chemiluminescent substrate (Pierce; Rockford, Ill.) was added, and the membrane was exposed to autoradiography film and developed.
Reaction conditions. Reactions were carried out for 60 min at 37° C. in buffer A (100 mM NaCl, 50 mM sodium phosphate, 100 μM diethylenetriaminepentaacetic acid (DTPA)) supplemented with 1 mM N-acetyl-L-tyrosine and either 50 μM hypohalous acid or 3 nM peroxidase and 50 μM H2O2. Buffer A was passed over a Chelex resin column prior to use to remove redox active transition metal ions. Reactions were initiated by the addition of oxidant and terminated with 0.1 mM methionine.
Reverse-phase HPLC analyses of halogenated amino acids. Analyses were performed using a flow rate of 1 mL/min and an Ultrasphere ODS reverse-phase column (4.6 mm×25 cm; 5 μm; Beckman Instruments; Berkeley, Calif.) coupled to a Waters 484 Tunable Absorbance Detector with monitoring at 275 nm. Solvent A was 0.1% trifluoroacetic acid (TFA, pH 2.5), and solvent B was 0.1% TFA in methanol (pH 2.5). The gradient profile was: isocratic elution at 66:34 (v/v) A:B over 2.1 min; linear increase of B from 34% to 40% over 30 min; isocratic elution at 60:40 A:B for 3 min; increase of B from 40% to 100% over 2 min; and isocratic elution at 100% B for 3 min. Products were quantified using integrated peak areas by comparison to standard curves of authentic N-Ac-chlorotyrosine and N-Ac-bromotyrosine.

[2] = mildly acidic conditions (pH 5.9)
[3] = neutral conditions (pH 7), taurine 200 μM

Molecule: Br [Br^−, bromide]
bacteria killing (dead) (Klebsiella pneumoniae; 1 μM Br added to the complete myeloperoxidase-H2O2-Cl^− system): 72%
effect on bacteria killing (Klebsiella pneumoniae; 10 μM Br^− added to the complete myeloperoxidase-H2O2-Cl^− system): completely inhibitory

effect on production of N-acetyl-L-3-bromotyrosine by the eosinophil peroxidase-H2O2-Cl^−-Br^− system (eosinophil peroxidase; [2]): failed to affect
effect on N-acetyl-L-3-bromotyrosine formation by the eosinophil peroxidase-H2O2-Cl^−-Br^− system (eosinophil peroxidase; [3]): little affect
effect on bromination of N-acetyl-L-tyrosine by myeloperoxidase (myeloperoxidase): inhibited
effect on bromination by the myeloperoxidase-H2O2-Cl^−-Br^− system (myeloperoxidase): almost completely inhibited
effect on bromination by the myeloperoxidase-H2O2-Cl^−-Br^− system (myeloperoxidase; listed as Taurine): inhibited
Molecule: NCCS(=O)(=O)O [taurine]
effect on formation of N-acetyl-L-3-bromotyrosine by the HOCl-Cl^−-Br^− system [1, 2]: inhibited
effect on formation of N-acetyl-L-3-bromotyrosine by the HOCl-Cl^−-Br^− system [1, 3]: completely inhibited
effect on N-acetyl-L-3-bromotyrosine formation by the myeloperoxidase-H2O2-Cl^−-Br^− system (myeloperoxidase; [3]): only partially inhibited; also recorded: only partly inhibited

effect on bromination of N-acetyl-L-tyrosine by myeloperoxidase (myeloperoxidase): inhibited
B1: catalase: a peroxide scavenger (protein, UniProt P04040 2-527, looked up)
Catalase: ADSRDPASDQMQHWKEQRAAQKADVLTTGAGNPVGDKLNVITVGPRGPLLVQDVVFTDEMAHFDRERIPERVVHAKGAGAFGYFEVTHDITKYSKAKVFEHIGKKTPIAVRFSTVAGESGSADTVRDPRGFAVKFYTEDGNWDLVGNNTPIFFIRDPILFPSFIHSQKRNPQTHLKDPDMVWDFWSLRPESLHQVSFLFSDRGIPDGHRHMNGYGSHTFKLVNANGEAVYCKFHYKTDQGIKNLSVEDAARLSQEDPDYGIRDLFNAIATGKYPSWTFYIQVMTFNQAETFPFNPFDLTKVWPHKDYPLIPVGKLVLNRNPVNYFAEVEQIAFDPSNMPPGIEASPDKMLQGRLFAYPDTHRHRLGPNYLHIPVNCPYRARVANYQRDGPMCMQDNQGGAPNYYPNSFGAPEQQPSALEHSIQYSGEVRRFNTANDDNVTQVRAFYVNVLNEEQRKRLCENIAGHLKDAQIFIQKKAVKNFTEVHPDYGSHIQALLDKYNAEKPKNAIHTFVQSGSHLAAREKANL
